Consider one molecule from US20260315464A1, “COMPOSITIONS, METHODS, AND SYSTEMS FOR MODULATING SPLICING OF MSH3” (REVIR THERAPEUTICS, INC., priority 2023, published 2026).

The test system of assay [1] is MSH3 exons 13/14 mRNA. The experiment in a line: qPCR of total MSH3 exons 13/14 in HEK293 WT and PE14A CAG clones (FIG. 11A). It is filed as cell-based, human. On the procedure: (§1) In this example, MSH3 poison exon 14A (PE5) and poison exon 21A (PE4) were validated. Briefly, HEK293 parental and clonal cells (Synthego) were cultured in DMEM (ThermoFisher Scientific) supplemented with 10% fetal bovine serum (Avantor) and 0.1 μg/mL Primocin (Invivogen). All cell lines were maintained at sub-confluency and grown in a humidified incubator at 37° C. with 5% CO2. HEK293 clonal cells were generated by Synthego's proprietary CRISPR methods to replace PE14A 5′ splice site with a strong donor (TGAGTTG>CAGGTTA) at the endogenous locus. Two clones (C3 and H2) were isolated to express 99-100% of the desired knock-in mutation. Two clones were generated from the parental line HEK293 without any editing (wild-type WTl3 and WT7) to be used as controls. […] RNA, cDNA and qPCR was prepared using TaqMan Cells-to-CT Express kit (ThermoFisher Scientific). Taqman assays (ThermoFisher Scientific) were used for quantification of total MSH3 exons 13/14 (cat #4351372, ID #: Hs00988993_ml), total MSH3 exons 20/21 (cat #4351372, ID #: Hs00989000_ml), exon 13/PE14A (Fwd: 5′-[…] (SEQ ID NO: 14); Rev: 5′-[…] (SEQ ID NO: 15); Probe: 5′-[…] (SEQ ID NO: 16)) and exon 20/PE21A (Fwd: 5′-[…] (SEQ ID NO: 17); Rev: 5′-[…] (SEQ ID NO: 18); Probe: 5′-[…] (SEQ ID NO: 19)) mRNA expression. […] Protein concentrations were determined by Rapid Gold BCA (ThermoFisher Scientific). […]

Assay [2] relates to MSH3 exon 13/PE14A mRNA (PE5). Kind of assay: qPCR of MSH3 PE5 (exon 13/PE14A) in HEK293 WT and PE14A CAG clones (FIG. 11B). It is filed as cell-based, human. The method, then:
as §1

For assay [3], the system named is MSH3 exons 20/21 mRNA. Kind of assay: qPCR of total MSH3 exons 20/21 in HEK293 WT and PE14A CAG clones (FIG. 12A). Format: cell-based, human. Particulars: HEK293 wild-type clones, 24 hours. The method, then:
as §1

Assay [4] concerns MSH3 exon 20/PE21A mRNA (PE4). The experiment in a line: qPCR of MSH3 PE4 (exon 20/PE21A) in HEK293 WT and PE14A CAG clones (FIG. 12B). Format: cell-based, human. Particulars: HEK293 wild-type clones, 24 hours. The method, then:
as §1

For assay [5], the system named is MSH3 protein. Kind of assay: Western blot of MSH3 protein in HEK293 WT and PE5 CAG clones (FIG. 12C). Format: cell-based, human. On the procedure: as §1
The subject of assay [6] is MSH3 poison exon 14A. Kind of assay: RT-PCR of MSH3 exon 13/PE14A and PE14A/exon 14 amplicons in cynomolgus monkey fibroblasts (FIG. 13). Format: cell-based. Particulars: 24 hours. The method, then:
(§2) To further validate MSH3 poison exon 14A, RT-PCR was used to analyze MSH3 exon 13/poison exon 14A, and poison exon 14A/exon 14 amplicons. Briefly, Cynomolgus monkey primary dermal fibroblasts (Cellosaurus) and HEK293 cells (ATCC) were cultured in DMEM (ThermoFisher Scientific) supplemented with 10% fetal bovine serum (Avantor) and 0.1 μg/mL Primocin (Invivogen). All cell lines were maintained at sub-confluency and grown in a humidified incubator at 37° C. with 5% CO2. RNA was purified using Qiashredder and RNeasy kits (Qiagen), cDNA was prepared with MultiScribe Reverse Transcriptase (ThermoFisher Scientific) and PCR with GoTaq Green Master Mix (Promega). Primers (IDT) used were the following: Fwd-Exon 13 (5′-[…] (SEQ ID NO: 20)), Rev-PE14A (5′-[…] (SEQ ID NO: 21)), Fwd-PE14A (5′-[…] (SEQ ID NO: 22)), Rev-Exon 14 (5′-[…] (SEQ ID NO: 23)), Fwd-GAPDH (5′-[…] (SEQ ID NO: 24)), Rev-GAPDH (5′-ACCCGTTGACTCCGACCT (SEQ ID NO: 25)).

Assay [7] deals with MSH3 poison exon 14A. The experiment in a line: RT-PCR of MSH3 exon 13/PE14A and PE14A/exon 14 amplicons in HEK293 cells (FIG. 13). It is filed as cell-based, human. Particulars: 24 hours. On the procedure:
as §2

Setting [8] is: HEK293 wild-type clones, 24 hours.

With `Cc1nn(C)cc1-c1cc(F)c2c(c1)C(=O)N(c1ccc(N(C)[C@H]3C[C@]4(C)CC[C@](C)(C3)N4)nn1)C2` [Compound A], the “MSH3 expression (total, exons 13/14)” value in assay [1] (setting [8]) was “lowering MSH3 expression”; in assay [1] (PE5 CAG clones C3 and H2, 24 hours), “No further decrease”. The PE5-specific expression entry in assay [2] (setting [8]) is “increasing PE5-specific expression”. Further, the “further increase of PE5” value in assay [2] (PE5 CAG clones C3 and H2, 24 hours, starting at 0.3-1 μM) is recorded as 20-30%. Moreover, the “MSH3 expression (total, exons 20/21)” value in assay [3] is “lowering MSH3 expression”. Besides, the PE4-specific expression result in assay [4] is recorded as “increasing PE4-specific expression”. The MSH3 protein levels entry in assay [5] (PE5 CAG clones) and in assay [5] (wild-type clones) was “decreased in MSH3 levels” each time. Moreover, the 13/PE14A amplicon result in assay [6] and in assay [7] was “increase” throughout. The PE14A/14 amplicon entry in assay [6] and in assay [7] was “increase” each time.
